According to patent publication US20250163052A1, “cGAS INHIBITORS AND USES THEREOF” (Cornell University, priority 2022, published 2025):

Assays:
[1] = Metabolic stability in human liver microsomes
[2] = Metabolic stability in mouse liver microsomes; conditions: for Remaining (NCF = 60 min) / Remaining (T = 60 min): mouse liver microsomes; for Remaining (NCF = 60 min): no co-factor (no NADPH); for Remaining (T = 60 min): 60 min with NADPH
h-cGAS = h-cGAS (Homo sapiens, UniProt Q8N884); experiment: Cell-free human cGAS enzyme inhibition assay (ATP depletion, Kinase-Glo Max); assay type: biochemical; conditions: 3 h; for inhibition at 1 µM: read-out: h-cGAS, conc. 1 μM; for inhibition at 10 µM: read-out: h-cGAS, conc. 10 μM
m-cGAS = m-cGAS (Mus musculus, UniProt Q8C6L5); experiment: Cell-free mouse cGAS enzyme inhibition assay (ATP depletion, Kinase-Glo Max); assay type: biochemical; conditions: 1 h; for inhibition at 1 µM: read-out: m-cGAS, conc. 1 μM; for inhibition at 10 µM: read-out: m-cGAS, conc. 10 μM
IFNB = experiment: THP1-Dual cells transfected with DNA, Ifnb expression (Quantiluc); assay type: cell-based; conditions: Homo sapiens; for inhibition at 10 µM: THP-1, 10 μM; for inhibition at 30 µM: THP-1, 30 μM
Method in brief: (§1)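 Readouts after overnight incubation: Quantiluc luminescence for Ifnb, Quantiblue for nfkb (both in supernatant) and CellTiter-Glo for viability. Before the DNA stimulus (2 ug/ml, lipofectamine transfection), THP1-Dual cells received compound at several dilutions for 4 h.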

NFkB-SEAP = experiment: THP1-Dual cells transfected with DNA, nfkb expression (Quantiblue); assay type: cell-based; conditions: Homo sapiens; for inhibition at 10 µM: THP-1, 10 μM; for inhibition at 30 µM: THP-1, 30 μM
Procedure: Evaluation of active cGAS inhibitors in THP1 cells (Table 3). Cellular activity of all compounds (in Table 3) was determined using THP1-Dual™ cells as described (Lama et. al., 2019). THP1-Dual™ cells (Invivogen) (50000 cells in 100 μl media) were seeded into each well of a 96-well plate and treated with compounds at various dilution for 4 hours. Subsequently, cells were transfected with DNA (2 ug/ml) and lipofectamine and incubate the cells were incubated overnight. Ifnb expression was measured in cell supernatant using Quantiluc, nfkb expression was determined using Quantiblue, and cell viability using Promega® CellTiter-Glo®.

THP1 cells = experiment: THP1-Dual cells, cell viability (CellTiter-Glo); assay type: cell-based
Method in brief: as §1

Sequence of m-cGAS (Q8C6L5 whole entry): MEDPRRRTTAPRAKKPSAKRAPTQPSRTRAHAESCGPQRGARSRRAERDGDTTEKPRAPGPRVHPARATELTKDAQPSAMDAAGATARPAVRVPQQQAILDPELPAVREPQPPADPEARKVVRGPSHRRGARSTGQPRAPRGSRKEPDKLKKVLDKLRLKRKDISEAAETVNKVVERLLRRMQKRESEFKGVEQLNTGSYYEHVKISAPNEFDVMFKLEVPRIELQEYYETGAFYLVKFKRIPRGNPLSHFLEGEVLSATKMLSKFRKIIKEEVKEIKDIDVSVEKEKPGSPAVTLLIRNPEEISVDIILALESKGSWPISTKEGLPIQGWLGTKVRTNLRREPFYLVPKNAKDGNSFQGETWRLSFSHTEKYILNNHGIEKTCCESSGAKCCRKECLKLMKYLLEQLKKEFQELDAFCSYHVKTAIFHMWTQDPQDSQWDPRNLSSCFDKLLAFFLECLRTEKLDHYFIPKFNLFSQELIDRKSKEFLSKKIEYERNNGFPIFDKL
Sequence of h-cGAS (Q8N884 whole entry): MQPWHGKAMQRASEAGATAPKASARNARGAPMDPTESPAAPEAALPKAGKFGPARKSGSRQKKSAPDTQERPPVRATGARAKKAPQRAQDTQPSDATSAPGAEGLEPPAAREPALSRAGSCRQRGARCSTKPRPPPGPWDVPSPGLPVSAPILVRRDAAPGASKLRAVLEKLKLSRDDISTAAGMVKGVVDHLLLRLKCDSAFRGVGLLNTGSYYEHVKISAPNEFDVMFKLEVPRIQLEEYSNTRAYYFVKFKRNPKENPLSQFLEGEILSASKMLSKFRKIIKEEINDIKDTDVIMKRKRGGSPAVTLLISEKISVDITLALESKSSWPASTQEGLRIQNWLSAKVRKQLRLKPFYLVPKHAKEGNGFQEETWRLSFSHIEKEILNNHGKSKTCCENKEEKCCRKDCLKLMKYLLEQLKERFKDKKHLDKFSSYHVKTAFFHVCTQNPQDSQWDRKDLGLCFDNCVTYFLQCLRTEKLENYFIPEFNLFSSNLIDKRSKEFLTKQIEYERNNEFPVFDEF

SMILES | Remaining (NCF = 60 min) ([1]; human liver microsomes, 60 min, no co-factor (no NADPH)) | Remaining (T = 60 min) ([1]; human liver microsomes, 60 min with NADPH) | CLint scaled ([1]; human, liver microsomes) | Remaining (NCF = 60 min) [2] | Remaining (T = 60 min) [2] | CLint scaled ([2]; mouse, liver microsomes) | CLint(mic) ([2]; mouse, liver microsomes) | T½ ([2]; mouse, liver microsomes) | inhibition at 1 µM (h-cGAS) | inhibition at 10 µM (h-cGAS) | inhibition at 1 µM (m-cGAS) | inhibition at 10 µM (m-cGAS) | inhibition at 10 µM (IFNB) | inhibition at 30 µM (IFNB) | inhibition at 10 µM (NFkB-SEAP) | Cell viability 10 μM (THP1 cells) | Cell viability 30 μM (THP1 cells) | half-life ([2]; mouse, liver microsomes) | microsomal CLint ([2]; mouse, liver microsomes) | inhibition at 30 µM (NFkB-SEAP)
C[C@]12CC[C@H]3[C@@H](CCC4=CC(=O)CC[C@@]43C)[C@@H]1CC[C@@H]2O [Testosterone, reference compound] | 109.9% | 4.0% | 98.2 mL/min/kg | 88.7% | 0.0% | 1490 mL/min/kg | 375.9 µL/min/mg | 3.7 min |  |  |  |  |  |  |  |  |  |  |  | 
Cn1ccc(-c2cc(Cl)c(Cl)c3oc4c(c23)CN(C(=O)CO)CC4)n1 [Compound 24] |  |  |  | 116.2% | 6.3% | < 23.1 mL/min/kg |  |  | 50 to 74% | 75 to 100% | 0 to 24% | 50 to 74% | 50 to 74% | 75 to 100% | < 24% | +++ (+, ++, and +++ mean the compound respectively shows 25-49%; 50-74%; or 75-100% viability to cells) | +++ (+, ++, and +++ mean the compound respectively shows 25-49%; 50-74%; or 75-100% viability to cells) | > 3.08 h | < 7.5 µL/min/mg | 
Cn1c2c(c3c(O)cc(Cl)c(F)c31)CN(C(=O)CO)CC2 [Compound 1, 1-(7-chloro-6-fluoro-9-hydroxy-5-methyl-3,4-dihydro-1H-pyrido[4,3-b]indol-2-yl)-2-hydroxy-ethanone] |  |  |  |  |  |  |  |  | 0 to 24% | 75 to 100% |  | 75 to 100% | < 24% | < 24% | < 24% | +++ (+, ++, and +++ mean the compound respectively shows 25-49%; 50-74%; or 75-100% viability to cells) | +++ (+, ++, and +++ mean the compound respectively shows 25-49%; 50-74%; or 75-100% viability to cells) |  |  | < 24%
Cn1cc(-c2cc(Cl)c(Cl)c3sc4c(c23)CCN(C(=O)CO)C4)cn1 [Compound 62] |  |  |  |  |  |  |  |  |  | 25 to 49% | 25 to 49% | 75 to 100% | 50 to 74% |  | < 24% | +++ (+, ++, and +++ mean the compound respectively shows 25-49%; 50-74%; or 75-100% viability to cells) |  |  |  | 
NCC(=O)N1CCc2c(sc3c(Cl)c(Cl)cc(-c4cncnc4)c23)C1 [Compound 73] |  |  |  |  |  |  |  |  | 0 to 24% | 50 to 74% | 0 to 24% | 50 to 74% | < 24% | 75 to 100% | < 24% | +++ (+, ++, and +++ mean the compound respectively shows 25-49%; 50-74%; or 75-100% viability to cells) | − (Cell viability <24%, in THP1 cells is expressed as “−”) |  |  | 75 to 100%
NCC(=O)N1CCc2c(sc3c(Cl)c(Cl)cc(-c4ccsc4)c23)C1 [Compound 82] |  |  |  |  |  |  |  |  | 0 to 24% | 50 to 74% | 0 to 24% | 50 to 74% | 50 to 74% | 75 to 100% | 75 to 100% | +++ (+, ++, and +++ mean the compound respectively shows 25-49%; 50-74%; or 75-100% viability to cells) | + (+, ++, and +++ mean the compound respectively shows 25-49%; 50-74%; or 75-100% viability to cells) |  |  | 75 to 100%
NCC(=O)N1CCc2sc3c(Cl)c(Cl)cc(-c4cncnc4)c3c2C1 [Compound 53] |  |  |  |  |  |  |  |  | 0 to 24% | 50 to 74% | 0 to 24% | 75 to 100% | < 24% | 75 to 100% | 25 to 49% | +++ (+, ++, and +++ mean the compound respectively shows 25-49%; 50-74%; or 75-100% viability to cells) | − (Cell viability <24%, in THP1 cells is expressed as “−”) |  |  | 50 to 74%
CNc1ccc(-c2cc(Cl)c(Cl)c3sc4c(c23)CCN(C(=O)CN)C4)cn1 [Compound 76] |  |  |  |  |  |  |  |  | 0 to 24% | 50 to 74% |  | 75 to 100% | 75 to 100% | 75 to 100% | < 24% | +++ (+, ++, and +++ mean the compound respectively shows 25-49%; 50-74%; or 75-100% viability to cells) | +++ (+, ++, and +++ mean the compound respectively shows 25-49%; 50-74%; or 75-100% viability to cells) |  |  | 75 to 100%
Cn1c2c(c3c(Br)cc(Cl)c(Cl)c31)CN(C(=O)CN)CC2 [Compound 6] |  |  |  |  |  |  |  |  | 0 to 24% | 75 to 100% |  | 75 to 100% | < 24% | < 24% | < 24% | +++ (+, ++, and +++ mean the compound respectively shows 25-49%; 50-74%; or 75-100% viability to cells) | +++ (+, ++, and +++ mean the compound respectively shows 25-49%; 50-74%; or 75-100% viability to cells) |  |  | 25 to 49%
O=C(CO)N1CCc2oc3c(Cl)c(Cl)ccc3c2C1 [Compound 21] |  |  |  |  |  |  |  |  |  | 25 to 49% |  | 75 to 100% |  | < 24% |  |  | +++ (+, ++, and +++ mean the compound respectively shows 25-49%; 50-74%; or 75-100% viability to cells) |  |  | < 24%
NCC(=O)N1CCc2c(sc3c(Cl)c(Cl)cc(-c4ccccn4)c23)C1 [Compound 86] |  |  |  |  |  |  |  |  | 0 to 24% | 50 to 74% | 0 to 24% | 25 to 49% | < 24% | 75 to 100% | < 24% | +++ (+, ++, and +++ mean the compound respectively shows 25-49%; 50-74%; or 75-100% viability to cells) | − (Cell viability <24%, in THP1 cells is expressed as “−”) |  |  | 50 to 74%
CC(O)C(=O)N1CCc2c(c3c(-c4ccn(C)n4)cc(Cl)c(Cl)c3n2C)C1 (centres unmarked) [Compound 4] |  |  |  |  |  |  |  |  | 25 to 49% | 75 to 100% |  | 0 to 24% | < 24% | 50 to 74% | < 24% | +++ (+, ++, and +++ mean the compound respectively shows 25-49%; 50-74%; or 75-100% viability to cells) | +++ (+, ++, and +++ mean the compound respectively shows 25-49%; 50-74%; or 75-100% viability to cells) |  |  | 25 to 49%
NCC(=O)N1CCc2c(sc3c(Cl)c(Cl)cc(-c4ccncc4)c23)C1 [Compound 79] |  |  |  |  |  |  |  |  |  | 25 to 49% | 25 to 49% | 75 to 100% | 75 to 100% | 75 to 100% | 50 to 74% | + (+, ++, and +++ mean the compound respectively shows 25-49%; 50-74%; or 75-100% viability to cells) | − (Cell viability <24%, in THP1 cells is expressed as “−”) |  |  | 75 to 100%
CN1c2c(Cl)c(Cl)cc(-c3cncnc3)c2C2CN(C(=O)CN)CCC21 (centres unmarked) [Compound 9] |  |  |  |  |  |  |  |  | 50 to 74% | 75 to 100% |  | 0 to 24% | < 24% | < 24% | < 24% | +++ (+, ++, and +++ mean the compound respectively shows 25-49%; 50-74%; or 75-100% viability to cells) | +++ (+, ++, and +++ mean the compound respectively shows 25-49%; 50-74%; or 75-100% viability to cells) |  |  | < 24%
Nc1ccc(-c2cc(Cl)c(Cl)c3[nH]c4c(c23)CN(C(=O)[C@@H]2CCCN2)CC4)cn1 [Compound 16] |  |  |  |  |  |  |  |  |  | 75 to 100% |  | 0 to 24% | 75 to 100% | 75 to 100% | 75 to 100% | +++ (+, ++, and +++ mean the compound respectively shows 25-49%; 50-74%; or 75-100% viability to cells) | + (+, ++, and +++ mean the compound respectively shows 25-49%; 50-74%; or 75-100% viability to cells) |  |  | 75 to 100%
NCC(=O)N1CCc2c(sc3c(Cl)c(Cl)cc(-c4cccnc4)c23)C1 [Compound 78] |  |  |  |  |  |  |  |  | 0 to 24% | 50 to 74% | 25 to 49% | 75 to 100% | 75 to 100% | 75 to 100% | 50 to 74% | + (+, ++, and +++ mean the compound respectively shows 25-49%; 50-74%; or 75-100% viability to cells) | − (Cell viability <24%, in THP1 cells is expressed as “−”) |  |  | 75 to 100%
NCC(=O)N1CCc2c(sc3c(Cl)c(Cl)cc(-c4cc[nH]n4)c23)C1 [Compound 77] |  |  |  |  |  |  |  |  | 25 to 49% | 50 to 74% | 25 to 49% | 75 to 100% | 25 to 49% | 75 to 100% | 50 to 74% | +++ (+, ++, and +++ mean the compound respectively shows 25-49%; 50-74%; or 75-100% viability to cells) | − (Cell viability <24%, in THP1 cells is expressed as “−”) |  |  | 75 to 100%
